In patent US11098055B2, “Ester ACC inhibitors and uses thereof” (Gilead Apollo, LLC, priority 2015, dated 2021):
≈ marks a conversion by molar mass, not a printed value. Where two headings read alike, the source gives them in different places.

Legend:
Test in all cases: Growth inhibition assay of fungal pathogens
Assay type in all cases: cell-based
Botrtyis cinerea (Bc) = settings: 48 h, read-out: Concentration at 90% Inhibition Bc
Outline: (§1)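 Inoculum density for each fungus is set from 48 h growth curves, and spores are suspended in 17% V8 liquid medium. Compounds are added to final 50, 10, 2 ppm or 2, 0.4, 0.08 ppm. Plates are read by OD600 at 24 and 48 h; inhibition is scored at 48 h versus 2% DMSO.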

[1] = system: Collectotrichum graminicola (Cg); settings: 48 h, read-out: Concentration at 90% Inhibition Cg
Outline: as §1

Diplodia maydis (Dm) = settings: Stenocarpella maydis, 48 h, read-out: Concentration at 90% Inhibition Dm
Outline: as §1

[2] = system: Fusarium moniliforme (Fm); settings: Fusarium verticillioides, 48 h, read-out: Concentration at 90% Inhibition Fm
Outline: as §1

[3] = system: Fusarium virguliforme (Fv); settings: 48 h, read-out: Concentration at 90% Inhibition Fv
Outline: as §1

[4] = system: Phytophthora capsici (Pc); settings: 48 h, read-out: Concentration at 90% Inhibition Pc
Outline: as §1

Rhizoctonia solani (Rs) = settings: 48 h, read-out: Concentration at 90% Inhibition Rs
Outline: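 Spores, or mycelial plugs for Rhizoctonia, in 17% V8 medium (¼ PDB for plugs) were exposed to compound at final 50, 10 and 2 ppm or 2, 0.4 and 0.08 ppm, with 2% DMSO. Growth was read by OD600 with blank subtraction plus visual rating; percent inhibition at 48 h is relative to 2% DMSO control.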

Septoria tritici (St) = settings: Zymoseptoria tritici, 48 h, read-out: Concentration at 90% Inhibition St
Outline: as §1

| Compound | IC90 (Botrtyis cinerea (Bc); Table 4b) | IC90 ([1]; Table 4b) | IC90 (Diplodia maydis (Dm); Table 4b) | IC90 ([2]; Table 4b) | IC90 ([3]; Table 4b) | IC90 ([4]; Table 4b) | IC90 (Rhizoctonia solani (Rs); Table 4b) | IC90 (Septoria tritici (St); Table 4b) | IC90 (Botrtyis cinerea (Bc); Table 4a) | IC90 ([1]; Table 4a) | IC90 (Diplodia maydis (Dm); Table 4a) | IC90 ([2]; Table 4a) | IC90 ([3]; Table 4a) | IC90 ([4]; Table 4a) | IC90 (Rhizoctonia solani (Rs); Table 4a) | IC90 (Septoria tritici (St); Table 4a) |
| --- | --- | --- | --- | --- | --- | --- | --- | --- | --- | --- | --- | --- | --- | --- | --- | --- |
| CCOC(=O)c1sc2c(c1C)c(=O)n(C(C)(C)C(=O)NC(C)C)c(=O)n2CCc1cc(F)ccc1OC [Compound I-40, ethyl 1-(5-fluoro-2-methoxyphenethyl)-3-(1-(isopropylamino)-2-methyl-1-oxopropan-2-yl)-5-methyl-2,4-dioxo-1,2,3,4-tetrahydrothieno[2,3-d]pyrimidine-6-carboxylate] | 2 µg/mL (≈ 3.75 µM) | 10 µg/mL (≈ 18.7 µM) | 10 µg/mL (≈ 18.7 µM) | 2 µg/mL (≈ 3.75 µM) | 2 µg/mL (≈ 3.75 µM) | ≥ 50 µg/mL | ≥ 50 µg/mL | ≥ 50 µg/mL |  |  |  |  |  |  |  |  |
| CCOC(=O)c1sc2c(c1C)c(=O)n(C(C)(C)C(=O)NC(C)C)c(=O)n2C[C@H](OC1CCOCC1)c1ccccc1OC [Compound I-8, (R)-ethyl 3-(1-(isopropylamino)-2-methyl-1-oxopropan-2-yl)-1-(2-(2-methoxyphenyl)-2-((tetrahydro-2H-pyran-4-yl)oxy)ethyl)-5-methyl-2,4-dioxo-1,2,3,4-tetrahydrothieno[2,3-d]pyrimidine-6-carboxylate] | 0.4 µg/mL (≈ 0.65 µM) | 2 µg/mL (≈ 3.25 µM) | 2 µg/mL (≈ 3.25 µM) | 0.08 µg/mL (≈ 0.13 µM) | 2 µg/mL (≈ 3.25 µM) | ≥ 50 µg/mL | 10 µg/mL (≈ 16.2 µM) | ≥ 50 µg/mL | 0.4 µg/mL (≈ 0.65 µM) | 2 µg/mL (≈ 3.25 µM) | 2 µg/mL (≈ 3.25 µM) | 0.08 µg/mL (≈ 0.13 µM) | 2 µg/mL (≈ 3.25 µM) | ≥ 50 µg/mL | ≥ 50 µg/mL | ≥ 50 µg/mL |
| CCOC(=O)c1sc2c(c1C)c(=O)n(C(C)(C)C(=O)N1CCCCC1)c(=O)n2C[C@H](OC(C)C)c1ccccc1OC [Compound I-6, (R)-ethyl 1-(2-isopropoxy-2-(2-methoxyphenyl)ethyl)-5-methyl-3-(2-methyl-1-oxo-1-(piperidin-1-yl)propan-2-yl)-2,4-dioxo-1,2,3,4-tetrahydrothieno[2,3-d]pyrimidine-6-carboxylate] | 0.4 µg/mL (≈ 0.667 µM) | 0.4 µg/mL (≈ 0.667 µM) | 0.4 µg/mL (≈ 0.667 µM) | 0.08 µg/mL (≈ 0.133 µM) | 0.4 µg/mL (≈ 0.667 µM) | ≥ 50 µg/mL | 0.4 µg/mL (≈ 0.667 µM) | 2 µg/mL (≈ 3.33 µM) | 0.4 µg/mL (≈ 0.667 µM) | 0.4 µg/mL (≈ 0.667 µM) | 0.4 µg/mL (≈ 0.667 µM) | 0.08 µg/mL (≈ 0.133 µM) | 0.4 µg/mL (≈ 0.667 µM) | ≥ 50 µg/mL | 0.4 µg/mL (≈ 0.667 µM) | 10 µg/mL (≈ 16.7 µM) |
| CCOC(=O)c1sc2c(c1C)c(=O)n(C(C)(C)C(=O)NC(C)C)c(=O)n2C[C@H](OCC(C)(C)C#N)c1cc(F)ccc1OC [Compound I-37, ethyl (R)-1-(2-(2-cyano-2-methylpropoxy)-2-(5-fluoro-2-methoxyphenyl)ethyl)-3-(1-(isopropylamino)-2-methyl-1-oxopropan-2-yl)-5-methyl-2,4-dioxo-1,2,3,4-tetrahydrothieno[2,3-d]pyrimidine-6-carboxylate] | 0.4 µg/mL (≈ 0.634 µM) | 0.4 µg/mL (≈ 0.634 µM) | 0.4 µg/mL (≈ 0.634 µM) | 0.08 µg/mL (≈ 0.127 µM) | 0.4 µg/mL (≈ 0.634 µM) | ≥ 50 µg/mL | 2 µg/mL (≈ 3.17 µM) | ≥ 50 µg/mL |  |  |  |  |  |  |  |  |
| CCOC(=O)c1sc2c(c1C)c(=O)n(C(C)(C)C(=O)N1CCCC1)c(=O)n2C[C@H](O)c1cc(F)ccc1OC [Compound I-22, (R)-ethyl 1-(2-(5-fluoro-2-methoxyphenyl)-2-hydroxyethyl)-5-methyl-3-(2-methyl-1-oxo-1-(pyrrolidin-1-yl)propan-2-yl)-2,4-dioxo-1,2,3,4-tetrahydrothieno[2,3-d]pyrimidine-6-carboxylate] | 2 µg/mL (≈ 3.56 µM) | 10 µg/mL (≈ 17.8 µM) | ≥ 50 µg/mL | 2 µg/mL (≈ 3.56 µM) | 2 µg/mL (≈ 3.56 µM) | ≥ 50 µg/mL | 0.08 µg/mL (≈ 0.142 µM) | ≥ 50 µg/mL |  |  |  |  |  |  |  |  |
| CCOC(=O)c1sc2c(c1C)c(=O)n(C(C)(C)C(N)=O)c(=O)n2C[C@H](OCCC#N)c1cc(F)ccc1OC [Compound I-14, (R)-ethyl 3-(1-amino-2-methyl-1-oxopropan-2-yl)-1-(2-(2-cyanoethoxy)-2-(5-fluoro-2-methoxyphenyl)ethyl)-5-methyl-2,4-dioxo-1,2,3,4-tetrahydro-thieno[2,3-d]pyrimidine-6-carboxylate] | 2 µg/mL (≈ 3.57 µM) | ≥ 50 µg/mL | ≥ 50 µg/mL | 0.4 µg/mL (≈ 0.714 µM) | 10 µg/mL (≈ 17.8 µM) | ≥ 50 µg/mL | 10 µg/mL (≈ 17.8 µM) | ≥ 50 µg/mL | 2 µg/mL (≈ 3.57 µM) | ≥ 50 µg/mL | ≥ 50 µg/mL | 0.4 µg/mL (≈ 0.714 µM) | ≥ 50 µg/mL | ≥ 50 µg/mL | ≥ 50 µg/mL | ≥ 50 µg/mL |
| CCOC(=O)c1sc2c(c1C)c(=O)n(C(C)(C)C(N)=O)c(=O)n2C[C@H](OCCOC)c1cc(F)ccc1OC [Compound I-10, (R)-ethyl 3-(1-amino-2-methyl-1-oxopropan-2-yl)-1-(2-(5-fluoro-2-methoxyphenyl)-2-(2-methoxyethoxy)ethyl)-5-methyl-2,4-dioxo-1,2,3,4-tetrahydrothieno[2,3-d]pyrimidine-6-carboxylate] | ≥ 50 µg/mL | ≥ 50 µg/mL | ≥ 50 µg/mL | 10 µg/mL (≈ 17.7 µM) | ≥ 50 µg/mL | ≥ 50 µg/mL | ≥ 50 µg/mL | ≥ 50 µg/mL | ≥ 50 µg/mL | ≥ 50 µg/mL | ≥ 50 µg/mL | ≥ 50 µg/mL | ≥ 50 µg/mL | ≥ 50 µg/mL | ≥ 50 µg/mL | ≥ 50 µg/mL |
| CCOC(=O)c1sc2c(c1C)c(=O)n(C(C)(C)C(=O)N1CCCC1)c(=O)n2C[C@H](OCCO)c1cc(F)ccc1OC [Compound I-12, (R)-ethyl 1-(2-(5-fluoro-2-methoxyphenyl)-2-(2-hydroxy-ethoxy)ethyl)-5-methyl-3-(2-methyl-1-oxo-1-(pyrrolidin-1-yl)propan-2-yl)-2,4-dioxo-1,2,3,4-tetrahydrothieno[2,3-d]pyrimidine-6-carboxylate] | 2 µg/mL (≈ 3.3 µM) | 0.4 µg/mL (≈ 0.66 µM) | 2 µg/mL (≈ 3.3 µM) | 0.4 µg/mL (≈ 0.66 µM) | 2 µg/mL (≈ 3.3 µM) | ≥ 50 µg/mL | 0.4 µg/mL (≈ 0.66 µM) | ≥ 50 µg/mL | 2 µg/mL (≈ 3.3 µM) | 0.4 µg/mL (≈ 0.66 µM) | 2 µg/mL (≈ 3.3 µM) | 0.4 µg/mL (≈ 0.66 µM) | 2 µg/mL (≈ 3.3 µM) | ≥ 50 µg/mL | 0.4 µg/mL (≈ 0.66 µM) | ≥ 50 µg/mL |
| CCOC(=O)c1sc2c(c1C)c(=O)n([C@H](C)C(=O)N1CCCC1)c(=O)n2C[C@H](OCCC#N)c1cc(F)ccc1OC [Compound I-24, ethyl 1-((R)-2-(2-cyanoethoxy)-2-(5-fluoro-2-methoxy-phenyl)ethyl)-5-methyl-2,4-dioxo-3-((R)-1-oxo-1-(pyrrolidin-1-yl)propan-2-yl)-1,2,3,4-tetrahydrothieno[2,3-d]pyrimidine-6-carboxylate] | 2 µg/mL (≈ 3.33 µM) | 2 µg/mL (≈ 3.33 µM) | 2 µg/mL (≈ 3.33 µM) | 0.08 µg/mL (≈ 0.133 µM) | 2 µg/mL (≈ 3.33 µM) | ≥ 50 µg/mL | 0.08 µg/mL (≈ 0.133 µM) | ≥ 50 µg/mL |  |  |  |  |  |  |  |  |
